# Literature values as cited in publication PMC9653995, “New Positive TRPC6 Modulator Penetrates Blood–Brain Barrier, Eliminates Synaptic Deficiency and Restores Memory Deficit in 5xFAD Mice” (International Journal of Molecular Sciences, 2022).
# Test system: TRPC3
# Details: cited from earlier work
smiles,measurement,value
"O=C(c1cc2c(s1)CCCCC2)N1CCC(n2c(=O)[nH]c3ccccc32)CC1 [GSK1702934A, reference compound]",activation of TRPC3,activate TRPC3
